From patent US7064120B2, “Tricyclic pyridyl carboxamides and derivatives thereof tocolytic oxytocin receptor antagonists” (Wyeth, priority 2001, dated 2006)
pIC50: −log10 of the molar value.

What follows are compounds tested against T1, human oxytocin receptor (Homo sapiens, UniProt P30559) (assay: Oxytocin binding in CHO cell membranes expressing human oxytocin receptors ([3H]oxytocin radioligand binding)). Conditions: 100 nM, read-out: OT % inhibition @ 100 nM.
T1 construct: host or cells: CHO cells, stably transfected (pcDNA3.1 vector)
T1 sequence (P30559 1-389): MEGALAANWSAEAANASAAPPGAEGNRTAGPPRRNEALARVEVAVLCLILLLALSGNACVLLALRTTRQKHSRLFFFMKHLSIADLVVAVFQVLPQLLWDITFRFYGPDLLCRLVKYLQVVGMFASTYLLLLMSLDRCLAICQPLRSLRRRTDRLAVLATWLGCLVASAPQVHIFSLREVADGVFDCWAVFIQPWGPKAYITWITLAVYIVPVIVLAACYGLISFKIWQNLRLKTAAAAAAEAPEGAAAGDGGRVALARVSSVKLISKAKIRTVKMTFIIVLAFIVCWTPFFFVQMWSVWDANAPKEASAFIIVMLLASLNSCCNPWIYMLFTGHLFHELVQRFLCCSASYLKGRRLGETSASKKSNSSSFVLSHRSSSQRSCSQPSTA
Outline: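 CHO membranes expressing human oxytocin receptor (25–50 μg protein/well) incubated 60 min at room temperature with [3H]oxytocin in Tris-HCl pH 7.4 buffer with MgCl2, BSA and protease inhibitors. Filtration and scintillation counting; reported as % inhibition at a stated concentration or nM IC50.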

Structure (SMILES)	inhibition at 0.1 µM
COc1cccc(-c2ccc(C(=O)N3Cc4ccc(C(=O)N5CCN(c6ccccn6)CC5)n4Cc4ccccc43)cc2OC)c1 [Example 85, {10-[(2,3′-Dimethoxy-[1,1′-biphenyl]-4-yl)carbonyl]-10,11-dihydro-5H-pyrrolo[2,1-c][1,4]benzodiazepin-3-yl}[4-(2-pyridinyl)-1-piperazinyl]methanone]	32%
COc1ccccc1-c1ccc(C(=O)N2Cc3ccc(C(=O)NCc4ccncc4)n3Cc3ccccc32)cc1OC [Example 97, 10-[(2,2′-Dimethoxy-[1,1′-biphenyl]-4-yl)carbonyl]-N-(4-pyridinylmethyl)-10,11-dihydro-5H-pyrrolo[2,1-c][1,4]benzodiazepine-3-carboxamide]	36%
Cc1cc(C(=O)N2Cc3ccc(C(=O)N4CCN(c5ccccn5)CC4)n3Cc3ccccc32)ccc1-c1ccccc1C(F)(F)F [Example 87, (10-{[2-Methyl-2′-trifluoromethyl-[1,1′-biphenyl]-4-yl]carbonyl}-10,11-dihydro-5H-pyrrolo[2,1-c][1,4]benzodiazepin-3-yl)[4-(2-pyridinyl)-1-piperazinyl]methanone]	52%
Cc1ccccc1-c1ccc(C(=O)N2Cc3ccc(C(=O)N4CCN(c5ccccn5)CC4)n3Cc3ccccc32)cc1 [Example 79, {10-[(2′-Methyl-[1,1′-biphenyl]-4-yl)carbonyl]-10,11-dihydro-5H-pyrrolo[2,1-c][1,4]benzodiazepin-3-yl}[4-(2-pyridinyl)-1-piperazinyl]methanone]	49%
O=C(c1ccc2n1Cc1ccccc1N(C(=O)c1ccc(-c3cccc4ccccc34)cc1Cl)C2)N1CCN(c2ccccn2)CC1 [Example 86, {10-[2-Chloro-4-(naphthalen-1-yl)benzoyl]-10,11-dihydro-5H-pyrrolo[2,1-c][1,4]benzodiazepin-3-yl}[4-(2-pyridinyl)-1-piperazinyl]methanone]	21%
Cc1ccccc1-c1ccc(C(=O)N2Cc3ccc(C(=O)NCc4ccncc4)n3Cc3ccccc32)cc1C [Example 89, 10-[(2,2′-Dimethyl-[1,1′-biphenyl]-4-yl)carbonyl]-N-(4-pyridinylmethyl)-10,11-dihydro-5H-pyrrolo[2,1-c][1,4]benzodiazepine-3-carboxamide]	67%
Cc1ccccc1-c1ccc(C(=O)N2Cc3ccc(C(=O)NCc4ccncc4)n3Cc3ccccc32)cc1 [Example 92, 10-[(2′-Methyl-[1,1′-biphenyl]-4-yl)carbonyl]-N-(4-pyridinylmethyl)-10,11-dihydro-5H-pyrrolo[2,1-c][1,4]benzodiazepine-3-carboxamide]	30%

Second part, the compound after the results:

inhibition at 0.1 µM	Structure (SMILES)
50%	COc1cc(-c2ccccc2C)c(Cl)cc1C(=O)N1Cc2ccc(C(=O)N3CCN(c4ccccn4)CC3)n2Cc2ccccc21 [Example 81, {10-[(6-Chloro-3-methoxy-2′-methyl-[1,1′-biphenyl]-4-yl)carbonyl]-10,11-dihydro-5H-pyrrolo[2,1-c][1,4]benzodiazepin-3-yl}[4-(2-pyridinyl)-1-piperazinyl]methanone]
94%	COc1cc(C(=O)N2Cc3ccc(C(=O)N(C)CCc4ccccn4)n3Cc3ccccc32)ccc1-c1ccccc1C [Example 69, 10-[(2-Methoxy-2′-methyl-[1,1′-biphenyl]-4-yl)carbonyl]-N-methyl-N-[2-(2-pyridinyl)ethyl]-10,11-dihydro-5H-pyrrolo[2,1-c][1,4]benzodiazepine-3-carboxamide]
77%	COc1cccc(-c2cc(OC)c(C(=O)N3Cc4ccc(C(=O)N(C)CCc5ccccn5)n4Cc4ccccc43)cc2Cl)c1 [Example 70, 10-[(6-Chloro-3,3′-dimethoxy-[1,1′-biphenyl]-4-yl)carbonyl]-N-methyl-N-[2-(2-pyridinyl)ethyl]-10,11-dihydro-5H-pyrrolo[2,1-c][1,4]benzodiazepine-3-carboxamide]
7%	COc1cccc(-c2cc(OC)c(C(=O)N3Cc4ccc(C(=O)NCc5ccncc5)n4Cc4ccccc43)cc2Cl)c1 [Example 95, 10-[(6-Chloro-3,3′-dimethoxy-[1,1′-biphenyl]-4-yl)carbonyl]-N-(4-pyridinylmethyl)-10,11-dihydro-5H-pyrrolo[2,1-c][1,4]benzodiazepine-3-carboxamide]
99%	COc1ccccc1-c1ccc(C(=O)N2Cc3ccc(C(=O)N(C)Cc4cccnc4)n3Cc3ccccc32)cc1 [Example 104, 10-[(2′-Methoxy-[1,1′-biphenyl]-4-yl)carbonyl]-N-methyl-N-(3-pyridinylmethyl)-10,11-dihydro-5H-pyrrolo[2,1-c][1,4]benzodiazepine-3-carboxamide]
50%	COc1cc(C(=O)N2Cc3ccc(C(=O)N4CCN(c5ccccn5)CC4)n3Cc3ccccc32)ccc1-c1ccccc1C [Example 80, {10-[(2-Methoxy-2′-methyl-[1,1′-biphenyl]-4-yl)carbonyl]-10,11-dihydro-5H-pyrrolo[2,1-c][1,4]benzodiazepin-3-yl}[4-(2-pyridinyl)-1-piperazinyl]methanone]
81%	COc1cc(C(=O)N2Cc3ccc(C(=O)N(C)CCc4ccccn4)n3Cc3ccccc32)ccc1-c1cccc2ccccc12 [Example 71, 10-[3-Methoxy-4-(naphthalen-1-yl)benzoyl]-N-methyl-N-[2-(2-pyridinyl)ethyl]-10,11-dihydro-5H-pyrrolo[2,1-c][1,4]benzodiazepine-3-carboxamide]

Same assay, conditions: value in parentheses, read-out: OT (IC50)

Structure (SMILES)	pIC50
Cc1cc(C(=O)N2Cc3ccc(C(=O)N(C)Cc4ccc[n+]([O-])c4)n3Cc3ccccc32)ccc1-c1ccccc1C(F)(F)F [Example 4, N-Methyl-10-{[2-methyl-2′-trifluoromethyl-[1,1′-biphenyl]-4-yl]carbonyl}-N-[(1-oxidopyridin-3-yl)methyl]-10,11-dihydro-5H-pyrrolo[2,1-c][1,4]benzodiazepine-3-carboxamide]	8.61
Cc1cc(C(=O)N2Cc3ccc(C(=O)N4CCN(Cc5ccc[n+]([O-])c5C)CC4)n3Cc3ccccc32)ccc1-c1ccccc1C(F)(F)F [Example 3, 3-({4-[(2-Methyl-1-oxidopyridin-3-yl)methyl]piperazin-1-yl}carbonyl)-10-{[2-methyl-2′-trifluoromethyl-[1,1′-biphenyl]-4-yl]carbonyl}-10,11-dihydro-5H-pyrrolo[2,1-c][1,4]benzodiazepine]	7.35
Cc1cc(C(=O)N2Cc3ccc(C(=O)N4CCN(Cc5ccc[n+]([O-])c5)CC4)n3Cc3ccccc32)ccc1-c1ccccc1C(F)(F)F [Example 2, 10-{[2-Methyl-2′-trifluoromethyl-[1,1′-biphenyl]-4-yl]carbonyl}-3-({4-[(1-oxidopyridin-3-yl)methyl]piperazin-1-yl}carbonyl)-10,11-dihydro-5H-pyrrolo[2,1-c][1,4]benzodiazepine]	7.77

Other lines, results leading:

pIC50	Structure (SMILES)
8.48	COc1cc(C(=O)N2Cc3ccc(C(=O)N(C)Cc4cccnc4)n3Cc3ccccc32)ccc1-c1ccccc1C(F)(F)F [Example 7, 10-{[2-Methoxy-2′-trifluoromethyl-[1,1′-biphenyl]-4-yl]carbonyl}-N-methyl-N-(pyridin-3-ylmethyl)-10,11-dihydro-5H-pyrrolo[2,1-c][1,4]benzodiazepine-3-carboxamide]
8.38	COc1cccc(-c2ccc(C(=O)N3Cc4ccc(C(=O)N(C)Cc5cccnc5)n4Cc4ccccc43)cc2C)c1 [Example 102, 10-[(3′-Methoxy-2-methyl-[1,1′-biphenyl]4-yl)carbonyl]-N-methyl-N-(3-pyridinyImethyl)-10,11-dihydro-5H-pyrrolo[2,1-c][1,4]benzodiazepine-3-carboxamide]
8.41	Cc1cc(C(=O)N2Cc3ccc(C(=O)N(C)Cc4cccnc4)n3Cc3ccccc32)ccc1-c1ccccc1C(F)(F)F [Example 112, N-Methyl-10-{[2-methyl-2′-trifluoromethyl-[1,1′-biphenyl]-4-yl]carbonyl}-N-(3-pyridinylmethyl)-10,11-dihydro-5H-pyrrolo[2,1-c][1,4]benzodiazepine-3-carboxamide]
8.29	COc1cc(-c2ccccc2C)c(Cl)cc1C(=O)N1Cc2ccc(C(=O)N(C)CCc3ccccn3)n2Cc2ccccc21 [Example 63, 10-[(6-Chloro-3-methoxy-2′-methyl-[1,1′-biphenyl]-4-yl)carbonyl]-N-methyl-N-[2-(2-pyridinyl)ethyl]-10,11-dihydro-5H-pyrrolo[2,1-c][1,4]benzodiazepine-3-carboxamide]
8.65	COc1ccccc1-c1ccc(C(=O)N2Cc3ccc(C(=O)N(C)Cc4cccnc4)n3Cc3ccccc32)cc1C [Example 101, 10-[(2′-Methoxy-2-methyl-[1,1′-biphenyl]-4-yl)carbonyl]-N-methyl-N-(3-pyridinylmethyl)-10,11-dihydro-5H-pyrrolo[2,1-c][1,4]benzodiazepine-3-carboxamide]
8.33	COc1cc(C(=O)N2Cc3ccc(C(=O)N(C)Cc4ccc[n+]([O-])c4)n3Cc3ccccc32)ccc1-c1ccccc1C(F)(F)F [Example 8, 10-{[2-Methoxy-2′-trifluoromethyl-[1,1′-biphenyl]-4-yl]carbonyl}-N-methyl-N-(1-oxo-pyridin-3-ylmethyl)-10,11-dihydro-5H-pyrrolo[2,1-c][1,4]benzodiazepine-3-carboxamide]
